Patent US20130039905A1 (Neurotec Pharma, S.L., priority 2010, published 2013)
“Also recorded” adds a separate entry of the source.

Assays:
[1] = system: EAE mice; assay: EAE in mice, treatment after first clinical signs (post-treatment, Example 3); type: in vivo; details: for global mean decrease of the clinical score (Area Under the Curve vs placebo): post-treatment
Experimental: Experimental Autoimmune Encephalomyelitis induction and clinic scoring of mice were performed as described on Example 2.
The day scoring a value of 1, every mouse was randomly assigned to a diazoxide-treatment or placebo-control group. The period of treatment was 15 days and the drug was dissolved in a vehicle consisting in 98.5% water plus 1.5% of dimetyl sulfoxide (Sigma-Aldrich, St. Louis, Mo., USA) and was administered daily orally by gavage (p.o.), in a dose volume of 200 μl. […] One placebo-control group received a daily oral administration of vehicle.
The non-parametric Mann-Whitney-Wilcoxon test was performed to establish the differences between the treated groups and control group for each day. p<0.05 was considered as significant. To test the global effect of the treatment along all the study, the Area Under the Curve of treated groups and control group was compared using One-Way-Anova test. p<0.05 was considered as significant.

[2] = system: EAE mice; assay: EAE in mice, treatment starting at immunization (pre-treatment, Example 2); type: in vivo; details: for global mean decrease of the clinical score (Area Under the Curve vs placebo): pre-treatment
[3] = Glycemia in mice receiving daily oral diazoxide (Example 1); type: in vivo; details: 30 days, female C57BL/6J mice, blood glucose at time 0 and 60 minutes
Experimental: Female C57BL/6J mice, 11 weeks of age, were purchased from Charles River and maintained on a 12:12 hr light:dark cycle, with standard chow and water freely available. The experiments began at 11:00 h. […] From day 4 on, glucose blood levels were measured every 3-4 days during the 30-day treatment period. Measurements were performed immediately before drug administration (time 0) and at 60 minutes. Blood samples were obtained from the saphenous vein and glucose levels were determined using a glucometer and glucose test strips (Accu-Chek® Aviva, Roche Diagnostics, Indianapolis, Ind, USA). For each group, hyperglycemia was considered when glucose concentration was equal or higher than 176 mg/dl.

[4] = system: bupivacaine-induced actute CNS toxicity; details: 100 mg/kg (300 mg/m^2), mice; cited from earlier work

SMILES: CC1=NS(=O)(=O)c2cc(Cl)ccc2N1 [Diazoxide]
- daily EAE clinical score compared to control group ([1]; 0.05 mg/kg (0.15 mg/m^2) daily p.o. for 15 days from score 1): significant difference at the final phase of the study (day 15)
- global mean decrease of the clinical score (Area Under the Curve vs placebo) ([1]; 0.05 mg/kg (0.15 mg/m^2) daily p.o.): 19%
- daily EAE clinical score compared to placebo-control group ([1]; 0.8 mg/kg (2.4 mg/m^2) daily p.o. for 15 days from score 1, day six to day fifteen): all clinical values were significantly lower; also recorded: significant reduction of the daily clinical score in ten consecutive days
- global mean decrease of the clinical score (Area Under the Curve vs placebo) ([1]; 1 mg/kg (3 mg/m^2) daily p.o., p<0.05): 40%
- daily EAE clinical score compared to control group ([1]; 4 mg/kg (12 mg/m^2) daily p.o. for 15 days from score 1): significant reduction in the clinical score at day four and at day five
- global mean decrease of the clinical score (Area Under the Curve vs placebo) ([1]; 4 mg/kg (12 mg/m^2) daily p.o.): 15%
- morbidity and mean daily clinical score compared to placebo-control group ([1]; 0.05, 0.8 and 1 mg/kg daily p.o. for 15 days from score 1): significant reduction of morbidity and of the mean daily clinical score
- daily EAE clinical score compared to placebo-control group ([1]; 1 lmg/kg (3 mg/m^2) daily p.o. for 15 days from score 1, day four to day fifteen): significantly lower from day four
- global mean decrease of the clinical score (Area Under the Curve vs placebo) ([2]; 0,8 mg/Kg (2.4 mg/m^2) daily p.o., p<0,01): 26%
- daily EAE clinical score compared to control group ([2]; 0.025 mg/kg (0.075 mg/m^2) daily p.o. for 30 days from immunization): significant difference at days fourteen, fifteen, eighteen and nineteen
- daily EAE clinical score compared to placebo control group ([2]; 0.8 mg/kg (2.4 mg/m^2) daily p.o. for 30 days from immunization): significantly lower at day thirteen and from day twenty-five to thirty; also recorded: significant in seven non-consecutive days
- global mean decrease of the clinical score (Area Under the Curve vs placebo) ([2]; 0,025 mg/Kg (0.075 mg/m^2) daily p.o., p<0.05): 26%
- mean value for clinical score compared to control group after day 13 post-immunization ([2]; all dosages tested (0.025 and 0.8 mg/kg) daily p.o. from immunization): better mean value for clinical score
- hyperglycemia (glucose concentration equal or higher than 176 mg/dl) ([3]; 0.05 mg/kg (0,15 mg/m^2) daily p.o.): none of the two doses tested in this study produced hyperglycemia
- hyperglycemia (glucose concentration equal or higher than 176 mg/dl) ([3]; 1 mg/kg (3 mg/m^2) daily p.o.): none of the two doses tested in this study produced hyperglycemia
- period of latency of the convulsions caused by bupivacaine [4]: increasing the period of latency of the convulsions
